Assay results: patent US9828379B2 (priority 2013, dated 2017)
In brackets after ≈: the same amount, converted by molar mass.

Experiments:
[1] = target: T1, ABHD6 (Mus musculus, UniProt Q8R2Y0); assay: In vitro competitive activity-based protein profiling (Table 2, % inhibition at 1 μM); type: biochemical; conditions: read-out: % Inhibition at 1 μM ABHD6
T1 sequence (Q8R2Y0 1-336): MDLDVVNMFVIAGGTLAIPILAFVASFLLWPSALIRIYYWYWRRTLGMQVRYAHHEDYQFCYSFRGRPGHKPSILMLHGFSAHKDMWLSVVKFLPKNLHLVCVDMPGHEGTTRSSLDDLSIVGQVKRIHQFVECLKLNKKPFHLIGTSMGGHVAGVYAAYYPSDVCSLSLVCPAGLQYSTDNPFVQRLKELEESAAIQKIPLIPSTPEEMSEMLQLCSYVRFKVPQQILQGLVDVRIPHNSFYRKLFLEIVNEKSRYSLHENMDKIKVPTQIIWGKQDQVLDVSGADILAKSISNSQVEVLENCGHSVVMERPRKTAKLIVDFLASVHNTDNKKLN

[2] = target: T2, FAAH (Mus musculus, UniProt O08914); assay: as above; type: biochemical; conditions: read-out: % Inhibition at 1 μM FAAH
T2 sequence (O08914 1-579): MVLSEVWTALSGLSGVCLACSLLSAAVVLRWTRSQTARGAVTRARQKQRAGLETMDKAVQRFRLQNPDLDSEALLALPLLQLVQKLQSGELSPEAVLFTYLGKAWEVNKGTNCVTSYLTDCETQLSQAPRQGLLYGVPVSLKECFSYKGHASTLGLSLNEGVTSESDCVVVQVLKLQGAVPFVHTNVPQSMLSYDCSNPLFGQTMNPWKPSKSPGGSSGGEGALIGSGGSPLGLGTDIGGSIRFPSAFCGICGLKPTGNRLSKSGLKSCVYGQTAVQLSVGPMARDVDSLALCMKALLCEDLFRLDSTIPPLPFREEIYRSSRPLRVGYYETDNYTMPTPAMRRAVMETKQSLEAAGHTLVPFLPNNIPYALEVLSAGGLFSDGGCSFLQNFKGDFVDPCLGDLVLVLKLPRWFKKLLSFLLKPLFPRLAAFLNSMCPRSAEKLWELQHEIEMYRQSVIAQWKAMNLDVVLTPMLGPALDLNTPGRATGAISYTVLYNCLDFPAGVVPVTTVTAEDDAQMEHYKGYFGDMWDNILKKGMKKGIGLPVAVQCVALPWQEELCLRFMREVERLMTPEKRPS

[3] = target: T3, MAGL (Mus musculus, UniProt O35678); assay: as above; type: biochemical; conditions: read-out: % Inhibition at 1 μM MAGL
T3 sequence (O35678 1-303): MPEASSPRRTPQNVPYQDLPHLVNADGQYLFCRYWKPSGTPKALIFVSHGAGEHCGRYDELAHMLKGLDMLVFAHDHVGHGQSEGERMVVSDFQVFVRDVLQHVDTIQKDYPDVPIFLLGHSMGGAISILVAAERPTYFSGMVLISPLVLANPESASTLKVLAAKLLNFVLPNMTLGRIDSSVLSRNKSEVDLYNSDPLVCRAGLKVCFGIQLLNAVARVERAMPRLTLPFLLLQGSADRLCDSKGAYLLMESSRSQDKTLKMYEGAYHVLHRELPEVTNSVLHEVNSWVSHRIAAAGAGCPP
Protocol: After 30 min, FP—Rh (1.0 μL, 50 μM in DMSO) was added and the mixture was incubated for another 30 min at 37° C. Reactions were quenched with SDS loading buffer (50 μL-4×) and run on SDS-PAGE.
Cell lysates were diluted with mock proteomes for use in competitive ABPP experiments.

[4] = system: Mycobacterium tuberculosis H37Rv (pFCA-luxAB); assay: microbe, parasite or virus in culture; type: cell-based; conditions: for inhibition at 100 µM: read-out: % Inhibition at 100 μM Mtb LORA
[5] = system: Mycobacterium Tuberculosis (Mtb); assay: Microplate Alamar Blue assay (MABA) against Mtb; type: cell-based
Protocol: The activity of disclosed compounds against Mtb can be assessed according to a method based on the microplate Alamar Blue® assay (MABA) (Collins and Franzblau, 1997. Microplate alamar blue assay versus BACTEC 460 system for high-throughput screening of compounds against Mycobacterium tuberculosis and Mycobacterium avium. Antimicrobial Agents and Chemotherapy 41, 1004-1009). Briefly, stock solutions of disclosed compounds are prepared and added to, for example, two wells of a microplate. One well is inoculated with broth containing Mtb. The second well receives only media in order to assess background fluorescence. For MICs, serial dilutions are performed in media. Each microplate is incubated for a period of time. After incubation, one control growth is developed with a mixture of Alamar Blue® solution and Tween 80. The plates are then reincubated. Afterwards, if the well turns pink, the dye mixture is placed into all wells and the plates are reincubated for an additional period of time. The mean fluorescence units (FU) of media-only wells are subtracted from all other wells. The results are expressed in terms of % inhibition defined as 1-(test well FU/mean FU of triplicate bacteria-only wells)×100. The MIC is defined as the lowest concentration effecting a reduction in fluorescence of ≧90% relative to bacteria-only controls.

[6] = system: Trypanosoma brucei; assay: Alamar Blue assay against Trypanosoma brucei; type: cell-based; conditions: read-out: IC50 T. brucei
Excerpt: The ability of disclosed compounds to inhibit Trypanosoma brucei (T. brucei) can be assessed using the Alamar Blue® assay (Räz et al., 1997. The Alamar Blue® assay to determine drug sensitivity of African trypanosomes (T.b. rhodesiense and T.b. gambiense) in vitro. Acta Tropica 68, 139-147). Bloodstream form trypanosomes are cultivated in Minimum Essential Medium (MEM). Standard curves can be generated by serially diluting T. brucei in culture medium and measuring fluorescence and absorbance after a period of incubation with Alamar Blue®. A drug sensitivity assay can be performed as described for the LILIT (long incubation low inoculation test) previously described (Brun and Lun, 1994. Drug sensitivity of Chinese Trypanosoma evansi and Trypanosoma equiperdum isolates. Vet. Parasitol. 52, 37-46) with minor modifications. Briefly, bloodstream form trypanosomes can be inoculated into microtiter plates and incubated in the presence of various disclosed compound concentrations for a period of time. Background fluorescence and absorbance of the drug-containing medium are determined for each drug dilution. Wells without drug serve as controls. Alamar Blue® is added after a period of time and fluorescence and colorimetric development is later determined.

[7] = target: T1, ABHD6; assay: biochemical; conditions: in vitro competitive ABPP
[8] = target: T2, FAAH; assay: biochemical; conditions: in vitro competitive ABPP
[9] = target: T3, MAGL; assay: biochemical; conditions: mouse; in vitro competitive ABPP; read-out: Mouse (IC50 value, nM) MAGL
[10] = target: T4, Mouse brain MAGL (Mus musculus, UniProt O35678); assay: Mouse brain proteomes from inhibitor treated mice (oral gavage, ABPP analysis); type: in vivo; conditions: p.o., sacrificed 4 h following administration
T4 construct: from tissue; host or cells: brain of wild-type C57Bl/6J mice dosed by oral gavage
T4 sequence (O35678 1-303): T3 sequence (O35678 1-303)

Structure (SMILES)	inhibition at 1 µM [1]	inhibition at 1 µM [2]	inhibition at 1 µM [3]	inhibition at 100 µM [4]	MIC [5]	MIC ([4]; read-out: MIC Mtb LORA)	IC50 [6]	IC50 [7]	IC50 [8]	IC50 [9]	inhibition at 5 mg/kg [10]
CNC(=O)C(OC(=O)N1CC2CN(C(c3ccc(Cl)cc3)c3ccc(Cl)cc3)CC2C1)C(F)(F)F (stereo not drawn) [Example 125, 2,2,2-Trifluoro-1-(methylcarbamoyl)ethyl 5-[bis(4-chlorophenyl)methyl]-octahydropyrrolo[3,4-c]pyrrole-2-carboxylate]	< 25%	< 25%	25 to 75%	> 80%	≤ 50 µM	–	–	–	–	–	–
O=C(OC(C(F)(F)F)C(F)(F)F)N1CC2CN(Cc3ccc(-c4ccccc4)cc3)CC2C1 (stereo not drawn) [Example 9, 1,1,1,3,3,3-Hexafluoropropan-2-yl 5-[(4-phenylphenyl)methyl]-octahydropyrrolo[3,4-c]pyrrole-2-carboxylate]	25 to 75%	25 to 75%	> 75%	> 80%	≤ 50 µM	≤ 50 µM	–	–	–	–	–
O=C(ON1C(=O)CCC1=O)N1CC2CN(Cc3ccc(Cl)cc3N3CCC4(CCOCC4)C3)CC2C1 (stereo not drawn) [Example 106, 2,5-Dioxopyrrolidin-1-yl 5-[(4-chloro-2-[8-oxa-2-azaspiro[4.5]decan-2-yl]phenyl)methyl]-octahydropyrrolo[3,4-c]pyrrole-2-carboxylate]	< 25%	< 25%	25 to 75%	–	–	–	< 5000 nM	–	–	–	–
CNC(=O)C(OC(=O)N1CC2CN(Cc3ccc(-c4ccccc4)cc3)CC2C1)C(F)(F)F (stereo not drawn) [Example 126, 2,2,2-Trifluoro-1-(methylcarbamoyl)ethyl 5-[(4-phenylphenyl)methyl]-octahydropyrrolo[3,4-c]pyrrole-2-carboxylate]	< 25%	25 to 75%	25 to 75%	> 80%	51 to 100 µM (≈ 23.5 to 46.1 µg/mL)	–	–	–	–	–	–
O=C(ON1C(=O)CCC1=O)N1CC2CN(C(c3ccc(Cl)cc3)c3ccc(Cl)cc3)CC2C1 (stereo not drawn) [Example 83, 2,5-Dioxopyrrolidin-1-yl 5-[bis(4-chlorophenyl)methyl]-octahydropyrrolo[3,4-c]pyrrole-2-carboxylate]	< 25%	< 25%	25 to 75%	> 80%	≤ 50 µM	–	–	–	–	–	–
CCn1cc(CN2CC3CN(C(=O)OC(C(F)(F)F)C(F)(F)F)CC3C2)c(C(=O)NCc2ccccc2)n1 (stereo not drawn) [Example 78, 1,1,1,3,3,3-Hexafluoropropan-2-yl 5-((3-(benzylcarbamoyl)-1-ethyl-1H-pyrazol-4-yl)methyl)hexahydropyrrolo[3,4-c]pyrrole-2(1H)-carboxylate]	25 to 75%	< 25%	> 75%	–	–	–	–	1000 to 10000 nM	> 10000 nM	< 100 nM	25 to 75%
CC(=O)N1CCC2(CCN(c3ccccc3CN3CC4CN(C(=O)OC(C(F)(F)F)C(F)(F)F)CC4C3)C2)C1 (stereo not drawn) [Example 135, 1,1,1,3,3,3-hexafluoropropan-2-yl 5-[(2-[7-acetyl-2,7-diazaspiro[4.4]nonan-2-yl]phenyl)methyl]-octahydropyrrolo[3,4-c]pyrrole-2-carboxylate]	< 25%	< 25%	> 75%	–	–	–	–	1000 to 10000 nM	1000 to 10000 nM	< 100 nM	≤ 25%
CCn1cc(CN2CC3CN(C(=O)OC(C(F)(F)F)C(F)(F)F)CC3C2)c(-c2ccccc2N2CCOCC2)n1 (stereo not drawn) [Example 131, 1,1,1,3,3,3-hexafluoropropan-2-yl 5-([1-ethyl-3-[2-(morpholin-4-yl)phenyl]-1H-pyrazol-4-yl]methyl)-octahydropyrrolo[3,4-c]pyrrole-2-carboxylate]	< 25%	< 25%	> 75%	–	–	–	–	1000 to 10000 nM	> 10000 nM	< 100 nM	≥ 75%
O=C(ON1C(=O)CCC1=O)N1CC2CN(Cc3ccc(-c4ccccc4)cc3)CC2C1 (stereo not drawn) [Example 84, 2,5-Dioxopyrrolidin-1-yl 5-[(4-phenylphenyl)methyl]-octahydropyrrolo[3,4-c]pyrrole-2-carboxylate]	25 to 75%	> 75%	> 75%	> 80%	51 to 100 µM (≈ 21.4 to 41.9 µg/mL)	–	–	–	–	–	–
